Measurements published in patent US20100189683A1, “Pulsatile Dosing of Gossypol for Treatment of Disease” (Ascenta Therapeutics, Inc., priority 2008, published 2010).

System: patients with advanced cancer
Experiment: Phase I clinical trial, daily versus pulsatile dosing of (−)-gossypol: adverse events graded by NCI-CTCAE v3 (Daily N = 38, BID × 3 d N = 21, Weekly N = 12)
Type: in vivo, human
Description: A phase I clinical trial was carried out to compare the maximum tolerated dose and safety of daily (i.e., continuous) versus pulsatile (i.e., intermittent) dosing of (−)-gossypol in patients with advanced cancer. A secondary objective of this study was to identify any anti-tumor activity of (−)-gossypol. Patients were treated with increasing doses of (−)-gossypol according to the following dosing schedules: “Daily” dosing: 5 to 60 mg/day of (−)-gossypol on 21 days per 28 day cycle; “BID×3d” dosing: 30 to 80 mg BID of (−)-gossypol on 3 consecutive days (e.g., Monday-Tuesday-Wednesday) repeated every other week per 28 day cycle; and “Weekly” dosing: 80 to 200 mg of (−)-gossypol once weekly per 28 day cycle. Adverse events (AEs) were graded by NCI-CTCAE v3.

Cc1cc2c(C(C)C)c(O)c(O)c(C=O)c2c(O)c1-c1c(C)cc2c(C(C)C)c(O)c(O)c(C=O)c2c1O [(−)-gossypol]
ALT increase (Daily, Grade ¾): 5 (13) N (%)
AST increase (Daily, Grade ¾): 6 (13) N (%)
Abdominal discomfort (Daily, Grade ¾): 2 (5) N (%)
Abdominal distention (Daily, Grade ¾): 0 N (%)
Abdominal pain (Daily, Grade ¾): 1 (3) N (%)
Albumin decreased (Daily, Grade ¾): 0 N (%)
Alkaline phosphatase increase (Daily, Grade ¾): 0 N (%)
Anorexia or decreased appetite (Daily, Grade ¾): 1 (3) N (%)
Any AE (Daily, Grade ¾): 37 (98) N (%)
Back pain (Daily, Grade ¾): 0 N (%)
Constipation (Daily, Grade ¾): 0 N (%)
Cough (Daily, Grade ¾): 0 N (%)
Creatinine increased (Daily, Grade ¾): 0 N (%)
Creatinine phosphokinase increase (Daily, Grade ¾): 0 N (%)
Dehydration (Daily, Grade ¾): 2 (5) N (%)
Diarrhea (Daily, Grade ¾): 5 (13) N (%)
Dizziness (Daily, Grade ¾): 0 N (%)
Dry mouth (Daily, Grade ¾): 0 N (%)
Dysgeusia (Daily, Grade ¾): 0 N (%)
Dyspnea (Daily, Grade ¾): 3 (8) N (%)
Fatigue/Asthenia (Daily, Grade ¾): 4 (11) N (%)
Flatulence (Daily, Grade ¾): 0 N (%)
Headache (Daily, Grade ¾): 0 N (%)
Hepatic encephalopathy (Daily, Grade ¾): 0 N (%)
Hyperbilirubinaemia (Daily, Grade ¾): 1 (3) N (%)
Hyperkalemia (Daily, Grade ¾): 0 N (%)
Hypocalcemia (Daily, Grade ¾): 2 (5) N (%)
Hypokalemia (Daily, Grade ¾): 3 (8) N (%)
Hyponatremia (Daily, Grade ¾): 1 (3) N (%)
Infection (Daily, Grade ¾): 1 (3) N (%)
Insomnia (Daily, Grade ¾): 0 N (%)
Mental status changes (Daily, Grade ¾): 1 (3) N (%)
Nausea (Daily, Grade ¾): 5 (13) N (%)
Pain (Daily, Grade ¾): 0 N (%)
Pancreatitis (Daily, Grade ¾): 0 N (%)
Peripheral edema (Daily, Grade ¾): 0 N (%)
Pleural Effusion (Daily, Grade ¾): 2 (5) N (%)
Pneumatosis intestinalis (Daily, Grade ¾): 0 N (%)
Pneumonia (Daily, Grade ¾): 1 (3) N (%)
Proteinurea (Daily, Grade ¾): 0 N (%)
Pyrexia (Daily, Grade ¾): 1 (3) N (%)
Renal Failure (Daily, Grade ¾): 0 N (%)
Sinusitis (Daily, Grade ¾): 0 N (%)
Small intestinal obstruction (ileus) (Daily, Grade ¾): 4 (11) N (%)
Troponin I or T increased (Daily, Grade ¾): 1 (3) N (%)
Urinary Tract Infection (Daily, Grade ¾): 0 N (%)
Vomiting (Daily, Grade ¾): 7 (18) N (%)
Weight decreased (Daily, Grade ¾): 0 N (%)
White blood cells increased (Daily, Grade ¾): 0 N (%)
ALT increase (Weekly, Grade ½): 3 (25) N (%)
AST increase (Weekly, Grade ½): 1 (8) N (%)
Abdominal discomfort (Weekly, Grade ½): 0 N (%)
Abdominal distention (Weekly, Grade ½): 3 (25) N (%)
Abdominal pain (Weekly, Grade ½): 2 (17) N (%)
Albumin decreased (Weekly, Grade ½): 0 N (%)
Alkaline phosphatase increase (Weekly, Grade ½): 2 (17) N (%)
Anorexia or decreased appetite (Weekly, Grade ½): 7 (58) N (%)
Any AE (Weekly, Grade ½): 10 (83) N (%)
Back pain (Weekly, Grade ½): 1 (8) N (%)
Constipation (Weekly, Grade ½): 4 (33) N (%)
Cough (Weekly, Grade ½): 0 N (%)
Creatinine increased (Weekly, Grade ½): 2 (17) N (%)
Creatinine phosphokinase increase (Weekly, Grade ½): 0 N (%)
Dehydration (Weekly, Grade ½): 2 (17) N (%)
Diarrhea (Weekly, Grade ½): 0 N (%)
Dizziness (Weekly, Grade ½): 2 (17) N (%)
Dry mouth (Weekly, Grade ½): 1 (8) N (%)
Dysgeusia (Weekly, Grade ½): 2 (17) N (%)
Dyspnea (Weekly, Grade ½): 1 (8) N (%)
Fatigue/Asthenia (Weekly, Grade ½): 8 (67) N (%)
Flatulence (Weekly, Grade ½): 1 (8) N (%)
Headache (Weekly, Grade ½): 1 (8) N (%)
Hepatic encephalopathy (Weekly, Grade ½): 0 N (%)
Hyperbilirubinaemia (Weekly, Grade ½): 2 (17) N (%)
Hyperkalemia (Weekly, Grade ½): 0 N (%)
Hypocalcemia (Weekly, Grade ½): 2 (17) N (%)
Hypokalemia (Weekly, Grade ½): 2 (17) N (%)
Hyponatremia (Weekly, Grade ½): 0 N (%)
Infection (Weekly, Grade ½): 0 N (%)
Insomnia (Weekly, Grade ½): 3 (25) N (%)
Mental status changes (Weekly, Grade ½): 0 N (%)
Nausea (Weekly, Grade ½): 2 (17) N (%)
Pain (Weekly, Grade ½): 0 N (%)
Pancreatitis (Weekly, Grade ½): 0 N (%)
Peripheral edema (Weekly, Grade ½): 3 (25) N (%)
Pleural Effusion (Weekly, Grade ½): 0 N (%)
Pneumatosis intestinalis (Weekly, Grade ½): 0 N (%)
Pneumonia (Weekly, Grade ½): 0 N (%)
Proteinurea (Weekly, Grade ½): 2 (17) N (%)
Pyrexia (Weekly, Grade ½): 0 N (%)
Renal Failure (Weekly, Grade ½): 1 (8) N (%)
Sinusitis (Weekly, Grade ½): 0 N (%)
Small intestinal obstruction (ileus) (Weekly, Grade ½): 0 N (%)
Troponin I or T increased (Weekly, Grade ½): 1 (8) N (%)
Urinary Tract Infection (Weekly, Grade ½): 2 (17) N (%)
Vomiting (Weekly, Grade ½): 0 N (%)
Weight decreased (Weekly, Grade ½): 2 (17) N (%)
White blood cells increased (Weekly, Grade ½): 0 N (%)
ALT increase (Weekly, Grade ¾): 1 (8) N (%)
AST increase (Weekly, Grade ¾): 4 (33) N (%)
Abdominal discomfort (Weekly, Grade ¾): 0 N (%)
Abdominal distention (Weekly, Grade ¾): 0 N (%)
Abdominal pain (Weekly, Grade ¾): 0 N (%)
Albumin decreased (Weekly, Grade ¾): 1 (8) N (%)
Alkaline phosphatase increase (Weekly, Grade ¾): 1 (8) N (%)
Anorexia or decreased appetite (Weekly, Grade ¾): 0 N (%)
Any AE (Weekly, Grade ¾): 10 (48) N (%)
Back pain (Weekly, Grade ¾): 0 N (%)
Constipation (Weekly, Grade ¾): 0 N (%)
Cough (Weekly, Grade ¾): 0 N (%)
Creatinine increased (Weekly, Grade ¾): 1 (8) N (%)
Creatinine phosphokinase increase (Weekly, Grade ¾): 1 (8) N (%)
Dehydration (Weekly, Grade ¾): 2 (17) N (%)
Diarrhea (Weekly, Grade ¾): 0 N (%)
Dizziness (Weekly, Grade ¾): 0 N (%)
Dry mouth (Weekly, Grade ¾): 0 N (%)
Dysgeusia (Weekly, Grade ¾): 0 N (%)
Dyspnea (Weekly, Grade ¾): 1 (8) N (%)
Fatigue/Asthenia (Weekly, Grade ¾): 1 (8) N (%)
Flatulence (Weekly, Grade ¾): 0 N (%)
Headache (Weekly, Grade ¾): 0 N (%)
Hepatic encephalopathy (Weekly, Grade ¾): 1 (8) N (%)
Hyperbilirubinaemia (Weekly, Grade ¾): 2 (17) N (%)
Hyperkalemia (Weekly, Grade ¾): 0 N (%)
Hypocalcemia (Weekly, Grade ¾): 0 N (%)
Hypokalemia (Weekly, Grade ¾): 1 (8) N (%)
Hyponatremia (Weekly, Grade ¾): 0 N (%)
Infection (Weekly, Grade ¾): 1 (8) N (%)
Insomnia (Weekly, Grade ¾): 0 N (%)
Mental status changes (Weekly, Grade ¾): 1 (8) N (%)
Nausea (Weekly, Grade ¾): 0 N (%)
Pain (Weekly, Grade ¾): 0 N (%)
Pancreatitis (Weekly, Grade ¾): 0 N (%)
Peripheral edema (Weekly, Grade ¾): 0 N (%)
Pleural Effusion (Weekly, Grade ¾): 1 (8) N (%)
Pneumatosis intestinalis (Weekly, Grade ¾): 1 (8) N (%)
Pneumonia (Weekly, Grade ¾): 0 N (%)
Proteinurea (Weekly, Grade ¾): 0 N (%)
Pyrexia (Weekly, Grade ¾): 1 (8) N (%)
Renal Failure (Weekly, Grade ¾): 0 N (%)
Sinusitis (Weekly, Grade ¾): 0 N (%)
Small intestinal obstruction (ileus) (Weekly, Grade ¾): 2 (8) N (%)
Troponin I or T increased (Weekly, Grade ¾): 2 (17) N (%)
Urinary Tract Infection (Weekly, Grade ¾): 0 N (%)
Vomiting (Weekly, Grade ¾): 0 N (%)
Weight decreased (Weekly, Grade ¾): 0 N (%)
White blood cells increased (Weekly, Grade ¾): 0 N (%)
Percentage of AEs, particularly Grade 3/4 AEs (pulsatile dosing (BID×3d and Weekly) as compared to continuous daily dosing): reduced percentage of AEs
